This is an account of results in patent publication US8993626B2, “Methods of treatment using sterculic acid” (The United States of America, as represented by the …, priority 2010, dated 2015).

Data set [1] relates to ARPE19 cells. As to the kind of experiment: CellTiter-Glo luminescent cell viability assay, 15 μM 7KCh-induced cytotoxicity. Type of data set: cell-based, human. The following applies: 1 μM + 15 μM 7KCh, 24 hr. Here is the method:
Error bar: standard deviation, n=4.
CellTiter-Glo® Luminescent Cell Viability Assay is a homogeneous method of determining the number of viable cells in culture based on quantitation of the ATP (luminescent signal) present, an indicator of metabolically active cells.
The contents in a plate were mixed for 2 min on an orbital shaker to induce cell lysis.
5) The plate was allowed to incubate at room temperature for 10 min to stabilize luminescent signal.
A general note: ATP-based viability assays read luminescence as a measure of living cells.

The test system of data set [2] is ARPE19 cells. Kind of data set: Phase-contrast images of cells after co-treatment with 15 μM 7KCh. The format is cell-based, human. The following applies: 1 μM fatty acid + 15 μM 7KCh, 24 hr. From the text:
FIG. 8 depicts phase-contrast images of ARPE19 cells at 24 hr after sterculic acid co-treatment with 7KCh.

The next data set concerns ARPE-19 cells. Kind of data set: Immunoblots of CHOP and GRP78. The format is cell-based. The following applies: 1 μM + 8 μM 7KCh. Here is the method: FIGS. 16A-16E depict the secreted protein levels of (A) VEGF, (B) IL-6, and (C) IL-8 were measure by ELISA 48 hr after treatment with 6 μM 7KCh, 1 μM sterculic acid, 1 μM stearic acid, or the combinations of 7KCh with either sterculic acid or stearic acid. Error bars indicate the standard deviations. *p<0.05 comparing to 7KCh, n=3. Two-tailed Student's t-test. The expressions of GRP78 and CHOP were shown by immunoblots (D) 24 hr or (E) 48 hr after treatment with 8 μM 7KCh, 1 μM sterculic acid, 1 μM stearic acid, or the combinations of 7KCh with either sterculic acid or stearic acid.
ARPE-19 cells were seeded in 24-well plates with 1×10^5 cells per well and allowed to recover for 16-24 hr. Once confluency reached approximately 90%, the effect of the fatty acids against 7KCh-mediated cell death was examined 24 hr after incubation in serum-free medium with 12 μM 7KCh. Fatty acids were tested at 0.1, 0.5, 1, 5 and 10 μM concentrations. The effects of the fatty acids against 7KCh-mediated inflammation and ER stress were examined by incubating cells in 1 μM fatty acids with either 8 μM 7KCh (24 hr for quantitative real-time PCR (qRT-PCR), 24 and 48 hr for immunoblot), or 6 μM 7KCh for 48 hr (for ELISA). Three individual experiments were performed for each treatment with quadruplicate measurements performed for each experiment in 24-well plates.
Lysis of ARPE-19 cells was performed using MPER buffer solution (Thermo Fisher Scientific) containing Complete Protease Inhibitor Cocktail (Roche Diagnostics). A total of 10 μg protein samples of the cell lysate were separated by SDS-PAGE on 10% Bis-Tris gels (Invitrogen). The gels were blotted on to nitrocellulose membranes (Invitrogen). The proteins were probed with primary antibodies for CHOP (1:1000 dilution), GRP78 (1:1000), or GAPDH (1:2000) at 4° C. overnight. The membranes were then further incubated with anti-rabbit IgG, HRP-linked antibodies (1:2000 dilution) at room temperature for 1 hr. […]

For data set [3], the system named is stearoyl-CoA desaturase (SCD). As to the kind of experiment: SCD mRNA expression (qRT-PCR). The format is cell-based. The protocol: FIGS. 18A and 18B depict (A) Dose response of SCD mRNA inductions by 0-12 μM 7KCh after 24 hr treatments. (B) The mRNA expressions of SCD in response to 8 μM 7KCh, 1 μM sterculic acid, 1 μM stearic acid, or the combinations of 7KCh with either sterculic acid or stearic acid. Error bars indicate the standard deviations. n=4.
The RNA was extracted using RNeasy Mini Kit (Qiagen, Valencia, Calif.). The reverse transcription was performed with reagents and kits from Invitrogen. Quantification of mRNA expression was performed using the Taqman gene expression assays and the following primers (VEGFa, Hs00173626_m1; IL-1β, Hs01555413_m1; IL-6, Hs00174131_m1; IL-8, Hs00174103_m1; IκBα, Hs00153283_m1; GRP78, Hs99999174_m1; CHOP, Hs01090850_m1; NOX2, Hs00166163_m1; NOX4, Hs01558199_m1; SCD, Hs00748952 s1; TNF-α, Hs00174128_m1; TGF-β1, Hs00998133_m1; GAPD, 4352934e). GAPD expression was used as an endogenous standard. All qRT-PCR experiments were measured in triplicates in an ABI 7500 Real-Time PCR Instrument (Applied Biosystems, Foster City, Calif.). The results of each treatment were normalized and presented in percentage relative to the vehicle-only control.
To determine the effect of 7KCh on SCD expression ARPE-19 cells were incubated with 4 μM 7KCh for 24 hr. 7KCh suppressed SCD mRNA expression by approximately 60-70% (FIG. 18A). […] Treatment of the cells with 8 μM 7KCh and 1 μM sterculic acid further suppress SCD expression to 86% (FIG. 18B). […] This is the only instance where 7KCh and sterculic acid worked synergistically rather than antagonistically.
For orientation: Quantitative PCR measures a nucleic acid by following its amplification.

The test system of a further data set is Leukemia, SR-91. As to the kind of experiment: NCI in vitro anti-cancer cell line screen (SRB). The following applies: Homo sapiens, 48 h.
Data set [4] relates to Non-Small Cell Lung Cancer, NCI-H226. As to the kind of experiment: NCI in vitro anti-cancer cell line screen (SRB). The following applies: Homo sapiens, NCI-H226, 48 h.
Experimental: (§1) The human tumor cell lines used in the cancer screen panel were grown in RPMI 1640 medium containing 5% FBS and 2 mM L-glutamine. The cells were inoculated into 96-well microtiter plates in 100 μl at plating density ranging from 5000 to 40,000 cell/well. […] Following drug addition, the plates were incubated for an additional 48 h. The assay was terminated by the addition of cold 10% TCA. The supernatant was discarded, and the plates were washed five times with water and air dried. Sulforhodamine B (SRB) solution (100 μl) at 0.4% (w/v) in 1% acetic acid was added to each well, and plates were incubated for 10 min at room temperature. After staining, unbound dye was removed by washing five times with 1% acetic acid and the plates were air dried. Bound stain was subsequently solubilized with 10 mM trizma base, and the absorbance was read on an automated plate reader at a wavelength of 515 nm.
(§2) A sulforhodamine B (SRB) end point was used to calculate the median growth inhibition (GI50). GI50 refers to the concentration at which the drug inhibits tumor cell growth by 50%.
The subject of a further data set is Colon Cancer, SW-620. Kind of data set: NCI in vitro anti-cancer cell line screen (SRB). The following applies: Homo sapiens, SW-620, 48 h.
For a further data set, the system named is D407 cells. As to the kind of experiment: 7-ketocholesterol-mediated cytotoxicity, 24-well CCK-8 viability. The following applies: 11 μM 7KCh, 24 hr, CCK-8.

Experimental for Colon Cancer, SW-620: as §1, §2
Experimental for Leukemia, SR-91: as §1, §2

For orientation: GI50 means the concentration at which growth is held to half of that of the control. With `CCCCCCCCC1=C(CCCCCCCC(=O)O)C1` [sterculic acid, 8-(2-octacyclopropen-1-yl)octanoic acid], the “cell viability relative to the level of untreated control (ATP level)” value in the data set on ARPE19 cells [1] is given as 80%. In the data set with ARPE19 cells [2], the “cell morphological changes compared to 7KCh alone” value was “much less proportion of dead cell and cell debris”. Further, the “effect on 7KCh-induced CHOP and GRP78 protein expression” value in the data set on ARPE-19 cells (24 hr) is on record as “completely inhibited”. Further, the “inhibitory effect on CHOP and GRP78 protein expression” value in the data set with ARPE-19 cells (after 48 hr) was “seems to decrease”. Further, the “inhibition of SCD expression” value in data set [3] (1 μM sterculic acid alone) is “similarly to 8 μM 7KCh”. Besides, the “suppression of SCD expression” value in data set [3] (8 μM 7KCh and 1 μM sterculic acid) turned out to be 86%. For the same compound, the GI50 in the data set on Leukemia, SR-91 is 10 µM; in data set [4], 10 µM; with Colon Cancer, SW-620 it was 1 µM. Further, in the data set on D407 cells, the “co-treatment concentration that completely offsets the 7KCh cytotoxic effect (viability at level of control)” value turned out to be 5 µM.
